{"source": "patent US4504478A", "about": "“Cephalosporin-1-oxide derivatives” (Imperial Chemical Industries PLC, priority 1982, dated 1985)", "assay_in_all_cases": "MIC by agar-dilution, in vitro antibacterial test", "assay_type_in_all_cases": "cell-based", "key": {"[1]": {"test_system": "Ent. cloacae", "settings": "Code No. A13, Jewell and Pearmain agar medium, inoculum ~10^5 CFU", "source_text": "(§1) As noted above the cephalosporin derivative of the invention has antibacterial properties, having a broad spectrum of activity in vitro against standard laboratory microorganisms, both Gram-negative and Gram-positive, which are used to screen for activity against pathogenic bacteria. The antibacterial spectrum and potency of a particular compound may be determined in a standard test system.\n(§2) The results set out in the following Table of the compound described in Example 1 are illustrative of the biological activity of the compounds of the present invention. The results are those obtained on a standard in vitro test system using Jewell and Pearmain agar medium. The antibacterial activity is described in terms of the minimum inhibitory concentration (MIC) determined by agar - dilution technique with an inoculum size of ~10^5 CFU."}, "[2]": {"test_system": "E. coli", "settings": "Code No. A8, Jewell and Pearmain agar medium, inoculum ~10^5 CFU", "source_text": "as §1, §2"}, "[3]": {"test_system": "Proteus mirabilis", "settings": "Code No. A18, Jewell and Pearmain agar medium, inoculum ~10^5 CFU", "source_text": "as §1, §2"}, "[4]": {"test_system": "Salmonella dublin", "settings": "Code No. A20, Jewell and Pearmain agar medium, inoculum ~10^5 CFU", "source_text": "as §1, §2"}, "[5]": {"test_system": "Staph. aureus", "settings": "Code No. A6, Jewell and Pearmain agar medium, inoculum ~10^5 CFU", "source_text": "as §1, §2"}, "[6]": {"test_system": "Strep. pyrogenes", "settings": "Code No. A1, Jewell and Pearmain agar medium, inoculum ~10^5 CFU", "source_text": "as §1, §2"}, "[7]": {"test_system": "Ps. aeruginosa", "settings": "Code No. A21, Jewell and Pearmain agar medium, inoculum ~10^5 CFU", "source_text": "as §1, §2"}, "[8]": {"test_system": "Serratia marescens", "settings": "Code No. A16, Jewell and Pearmain agar medium, inoculum ~10^5 CFU", "source_text": "as §1, §2"}, "[9]": {"test_system": "K. aerogenes", "settings": "Code No. A10, Jewell and Pearmain agar medium, inoculum ~10^5 CFU", "source_text": "as §1, §2"}}, "data": [{"smiles": "CC(=O)OCC1=C(C(=O)O)N2C(=O)C(Nc3ncc[nH]3)C2[S+]([O-])C1.O=C(O)C(F)(F)F", "note": "(stereo not drawn) [Example 1, 3-acetoxymethyl-7-(imidazol-2-yl)aminoceph-3-em-1β-oxide-4-carboxylicacid trifluoroacetate]", "values": [{"measurement": "minimum inhibitory concentration (MIC)", "setting": "[1]", "result": 2, "unit": "µg/mL"}, {"measurement": "minimum inhibitory concentration (MIC)", "setting": "[2]", "result": 2, "unit": "µg/mL"}, {"measurement": "minimum inhibitory concentration (MIC)", "setting": "[3]", "result": "> 128", "unit": "µg/mL"}, {"measurement": "minimum inhibitory concentration (MIC)", "setting": "[4]", "result": 1, "unit": "µg/mL"}, {"measurement": "minimum inhibitory concentration (MIC)", "setting": "[5]", "result": "> 128", "unit": "µg/mL"}, {"measurement": "minimum inhibitory concentration (MIC)", "setting": "[6]", "result": 64, "unit": "µg/mL"}, {"measurement": "minimum inhibitory concentration (MIC)", "setting": "[7]", "result": "> 128", "unit": "µg/mL"}, {"measurement": "minimum inhibitory concentration (MIC)", "setting": "[8]", "result": 64, "unit": "µg/mL"}, {"measurement": "minimum inhibitory concentration (MIC)", "setting": "[9]", "result": 4, "unit": "µg/mL"}]}]}
